Laboratory results published in patent publication US20080305157A1, “Encapsulation and separation of charged organic solutes inside catanionic vesicles” (University of Maryland Office of Technology …, priority 2007, published 2008).
Where “and” joins values, the source holds several entries; their conditions need not be identical. Identical values can stand only once. Counter-ions that a name gives are not always drawn.

How the values were obtained:
[1] = Apparent encapsulation efficiency (ε) of solutes in vesicles by SEC and UV-vis; type: physicochemical; conditions: 1 wt% surfactant, 1 mM solute; for ε (Apparent Encapsulation Efficiency) SDBS-Rich V^−: V^− vesicles 3:7 w/w CTAT:SDBS; for ε (Apparent Encapsulation Efficiency) CTAT-Rich V^+: V^+ vesicles 7:3 w/w CTAT:SDBS
Procedure: For the determination of encapsulation efficiencies, vesicles were prepared using aqueous solutions containing 1.0 mM carboxyfluorescein (CF) dye. The formation of CTAT-rich vesicles (7:3 CTAT to SDBS w/w) appeared to be inhibited at CF concentrations of 5 mM or greater. High concentrations of CF (and similarly, other solutes) tended to disrupt the vesicles and lead to precipitation over time. Vesicle stability appeared to be unaffected when the solute concentration is kept below 5 mM, and at these concentrations solute encapsulation does occur. For CF, a pH ˜9 was required in order to fully dissolve the dye, and the stock solutions were adjusted accordingly. The CF/CTAT/SDBS solutions were stirred for 15-30 min and the resulting vesicle solutions were allowed to equilibrate in the dark at room temperature for at least 48 h. Dynamic light scattering (DLS) was then used to confirm vesicle formation. SDBS-rich vesicles (e.g., 3:7 CTAT to SDBS w/w) could be prepared with higher CF concentrations (up to ca. 100 mM); however CF encapsulation in these vesicles was reduced relative to that of CTAT-rich vesicles and in many cases CF encapsulation by SDBS-rich vesicles (i.e., the formation of distinct bands in the chromatography column, see below) was not achieved.
(§1) The apparent encapsulation efficiencies of the two vesicle preparations, V^+ and V^−, were also evaluated for the other solute molecules shown in FIG. 9. A solute concentration of 1 mM was used in all cases. Lucifer yellow (LY) is dianionic in water and Sulforhodamine 101 (SR101) is monanionic. […] Doxorubicin hydrochloride (Dox) is a cationic drug with a pKa of ˜7.619 that has been used to treat a variety of cancers. […] In each case, vesicles were prepared using aqueous solutions of the solute at a concentration of 1 mM. The solute/CTAT/SDBS mixtures were stirred for 30-60 min, or overnight, and the resulting vesicle solutions were allowed to equilibrate in the dark at room temperature for at least 48 h. Thereafter, the samples were passed through a 25 mm syringe filter (0.45 μm mesh) to remove any impurities. Dynamic light scattering was conducted to confirm vesicle formation and to measure the average vesicle size.
To measure the apparent encapsulation efficiency ε, size exclusion chromatography (SEC) was used to separate the free solute from that encapsulated by the vesicles. A 2×25 cm column packed with Sephadex G50 resin (medium mesh, Amersham Biosciences) or a 1.3 cm×21 cm SEC column packed with Sephadex G50 resin (medium mesh, from Amersham Biosciences) was used. An aliquot of the vesicle-solute sample was run through the SEC column.
During elution, vesicle solutions divided into bands that were visible with the naked eye or by UV lamp, e.g., in the case of CF dye containing vesicles, two clear bands, the leading band containing the dye-bearing vesicles and the second band containing the free dye. During elution, fractions were collected and analyzed, and a series of such fractions for a typical experiment is shown in FIG. 6 (the solute in FIG. 6 is CF). The band containing the vesicles was collected for further studies of vesicle leakage, as described below. Dynamic light scattering was used to determine which of the eluted fractions contained vesicles, and the vesicles were consistently found to elute at 5.5 ml, total elution volume.
The amount of solute in each fraction was determined using UV-vis spectroscopy (Hitachi U-3010 Spectrometer). The encapsulation efficiency (ε) value is defined as the amount of encapsulated solute relative to the total initial amount of solute:
V designates volume, A designates absorbance, i denotes initial values taken from the original preparation, and f denotes values taken from the fractions eluted from the SEC column shown by dynamic light scattering to contain vesicles. Thus, the value of ε gives percentage of dye that is captured by the vesicles during their preparation. […]

[2] = type: physicochemical
Procedure: A more general procedure based on SEC that can be applied to a wide range of solutes, including non-self-quenching and non-fluorescent ones was also used. The initial vesicle-solute mixture was purified using SEC (as described above) to remove the free, unencapsulated solute. The sample was then checked for release of solute from the vesicles over the course of several weeks. For this purpose, small-scale separations using quick-spin columns pre-packed with Sephadex G50 (fine) were performed (column from Roche, additional beads for repacking the columns from Sigma). On a specific day, a 100 μL aliquot was run through a quick-spin column by centrifugation (3000 rpm, 15 s), and the eluted fraction was evaluated using UV-vis spectroscopy. Any solute that had been released from the vesicles was retained by the quick-spin column. Therefore, the amount of solute eluted by the column corresponded to the solute still encapsulated by the vesicles. The UV-vis absorption value for the eluted sample was divided by the corresponding value obtained on day zero (immediately after SEC) to yield a fraction of solute that remains encapsulated in the vesicles. This method directly yielded the apparent encapsulation, ε, as a function of time. […]

[3] = Vesicle radius by dynamic light scattering (DLS); type: physicochemical; conditions: for Vesicle Radius after SEC by DLS CTAT-Rich V^+: V^+ vesicles with 1 mM solute; for Vesicle Radius after SEC by DLS SDBS-Rich V^−: V^− vesicles with 1 mM solute
Procedure: Vesicle sizes in solution were monitored using dynamic light scattering (DLS) on a Photocor-FC instrument. The light source was a 5 mW laser at 633 nm and the scattering angle was 90°. A logarithmic correlator was used to obtain the autocorrelation function, which was analyzed by the method of cumulants to yield a diffusion coefficient. The apparent hydrodynamic size of the vesicles was obtained from the diffusion coefficient through the Stokes-Einstein relationship. The intensity (total counts) of the signal was also recorded for each sample.
as §1
A low solute concentration, e.g., 1 mM, was used in the experiments to ensure the stability of our vesicle formulations. […] Even at a concentration of 1 mM, some solutes may have a large effect on vesicle morphology. To study these aspects in some detail, dynamic light scattering (DLS) and small angle neutron scattering (SANS) were used. DLS was performed on purified vesicles obtained from the SEC column (after removing all the free solute); the sizes of solute-containing vesicles were compared with the sizes of neat vesicles (no solute). DLS gave radii of 74 nm for neat V^+ vesicles and 70 nm for neat V^− vesicles. Passing these neat vesicles through an SEC column changed their sizes slightly and the new radii were 81 nm for V^+ and 98 nm for V^− vesicles. […] However, while 1 mM of the anionic solute Lucifer yellow (LY) had no effect on V^− vesicles, it induced a 2.5 fold increase in the radii of V^+ vesicles.

[4] = Dye adsorption: dye added to preformed vesicles, then SEC; type: physicochemical
[5] = Separation of oppositely charged solute mixtures with catanionic vesicles by SEC; type: physicochemical; conditions: for Dye carried through SEC column within the V^+ vesicle band / Dye in the V^− vesicle band emerging from SEC column: equimolar CF and R6G, total dye 0.5 mM; for Dye carried through SEC column within the V^+ vesicle band: V^+ vesicles; for Dye in the V^− vesicle band emerging from SEC column: V^− vesicles; for Separation of LY and Dox by catanionic vesicles in SEC: total compound concentration 1 mM
Procedure: Catanionic vesicles were prepared with equimolar mixtures of two solutes, the cationic organic dye rhodamine 6G (R6G) and the anionic dye carboxyfluorescein (CF). The total solute concentration was maintained at either 0.5 or 1.0 mM, and experiments were done with both positively charged vesicles (V^+) (excess of cationic CTAT) and negatively charged vesicles (V^−) (excess of anionic SDBS) formed from cetyltrimethylammonium tosylate (CTAT) and sodium dodecylbenzenesulfonate (SDBS).
Experiments with these solute mixtures were performed and analyzed by performing size exclusion chromatography on the sample and measuring the dye concentration of each fraction to obtain an apparent encapsulation value, ε, for each dye (see below). The dye concentration in each fraction was determined by UV-vis spectroscopy. To account for the overlapping of the dye spectra, we subtracted a scaled spectrum of pure R6G from the total spectrum in order to find the peak absorbance of CF.

[6] = Long-term CF release from vesicles by self-quenching fluorescence, R(t); type: physicochemical
Procedure: The self-quenching behavior of carboxyfluorescein (CF) was used to monitor dye efflux from vesicles. CF is a widely used probe for vesicle encapsulation due to its ability to undergo efficient self-quenching of fluorescence at millimolar concentrations. For example, when 60 mM CF is entrapped in vesicles, its fluorescence intensity is reduced by 60-80%, but as the dye is released from the vesicle, and thus diluted by the surrounding buffer, its fluorescence intensity increases.
Samples were checked on a specific day by placing a fixed aliquot (1.5 mL) into a 1 cm cuvette and monitoring its emission at 520 nm while exciting at 490 nm using a Spex Fluorolog-3 spectrometer. The intensity was monitored for several minutes to establish the baseline fluorescence intensity, which contains a contribution from both free and encapsulated dyes. After the baseline was established, 100 uL of 10% (w/w) aqueous Triton X-100 was added to disrupt the vesicles. Vesicle disruption results in the release of all dye molecules into solution and a concomitant increase in fluorescence. For these experiments, a substantial volume of sample was prepared on the first day and run on the SEC column to remove free dye. […] The traces show the emission intensity before and after the addition of Triton X-100, a nonionic detergent that disrupts both lipid and surfactant vesicles. […] As expected, the largest jump occurs for the freshly prepared vesicle solution where all the dye is encapsulated in the vesicles. We compare the magnitude of the jump on Day x with the highest jump (Day 0) and thereby obtain the fraction of the dye released on day x, R(t=x), the calculation of which is described below. […]
To monitor long-term leakage rates, the fraction of dye released as a function of time, R(t), was calculated for a given day. This quantity measures the fraction of encapsulation on Day x relative to the initial value on Day 0:
where F(initial) and F(final) are the fluorescence intensities before and after adding the Triton X-100. […]

[7] = Apparent encapsulation efficiency (ε) of solutes in vesicles by SEC and UV-vis; type: physicochemical; conditions: inner water pool only
[8] = cited from earlier work

Row | ε (Apparent Encapsulation Efficiency) SDBS-Rich V^− [1] | Half life in the vesicles [2] | Retention of solute relative to liposomes ([2]; catanionic vesicles vs EYPC liposomes) | Effect of solute on V^+ vesicle radii ([3]; 1 mM solute) | Effect of solute on V^− vesicle radii ([3]; 1 mM solute) | Vesicle Radius after SEC by DLS CTAT-Rich V^+ [3] | Vesicle Radius after SEC by DLS SDBS-Rich V^− [3] | Electrostatic adsorption contribution to overall apparent encapsulation efficiency ε ([4]; CF added to pre-formed V^+ vesicles vs vesicles formed with CF) | Dye carried through SEC column within the V^+ vesicle band [5] | Dye in the V^− vesicle band emerging from SEC column [5] | Release rate slower than from EYPC vesicles ([6]; CF from V^+ vesicles vs EYPC vesicles) | Period over which CF dye is released ([6]; EYPC vesicles) | Release of CF ([6]; V^+ vesicles, after 27 days) | Actual encapsulation efficiency for dye in the V^+ water pool [7] | ε (Apparent Encapsulation Efficiency) CTAT-Rich V^+ [1] | ε (Apparent Encapsulation Efficiency) SDBS-Rich V^− ([1]; hydrochloride) | Separation of LY and Dox by catanionic vesicles in SEC [5] | ε when dye added to pre-made vesicles, as share of Table 1 value ([4]; R6G added to pre-made V^− vesicles) | Increase in the radii of V^+ vesicles ([3]; 1 mM solute, vs neat vesicles) | Molecule | pKa [8]
1 | 1.0 ± 0.4% | 114 days | 40-60 times | essentially unchanged | essentially unchanged | 87 ± 5 nm | 91 ± 8 nm | about 75% | 31% | negligible | at least 40 times | about 5 days | approximately 20% | ca. 5% | – | – | – | – | – | 5(6)-carboxyfluorescein [CF] | –
2 | – | – | – | – | – | 143 ± 32 nm | 93 ± 4 nm | – | – | – | – | – | – | – | 0% | 55% | Very efficient separation | – | – | COc1cccc2c1C(=O)c1c(O)c3c(c(O)c1C2=O)C[C@@](O)(C(=O)CO)C[C@@H]3O[C@H]1C[C@H](N)[C@H](O)[C@H](C)O1 [Dox, doxorubicin hydrochloride] | ~7.619
3 | 72% and 72 ± 3% | – | – | – | – | 156 ± 24 nm | 109 ± 16 nm | – | no detectable | 88% | – | – | – | – | 0.07 ± 0.1% | – | – | ca. 85% | – | CCN=c1cc2oc3cc(NCC)c(C)cc3c(-c3ccccc3C(=O)OCC)c-2cc1C.Cl [R6G, rhodamine 6G] | –
4 | 8.2% | – | – | – | – | 122 ± 38 nm | 84 ± 7 nm | – | – | – | – | – | – | – | 32.8% | – | – | – | – | O=S(=O)([O-])c1cc(S(=O)(=O)O)ccc1C1=c2cc3c4c(c2Oc2c1cc1c5c2CCCN5CCC1)CCC[N+]=4CCC3 [SR 101, sulforhodamine 101] | –
5 | 4% | – | – | – | no effect | 208 ± 18 nm | 96 ± 3 nm | – | – | – | – | – | – | – | 40 ± 20% | – | Very efficient separation | – | 2.5 fold | Lucifer yellow [LY] | –
